# Measurements: patent publication US8278296B2, “Manipulation of brain CDP-diacylglycerol and uses thereof” (priority 2006, dated 2012)
# Entries after “also recorded” stand apart in the source; their conditions may differ.
# How the values were obtained:
# [1] = test system: CDP-diacylglycerol; test: [3H]CDP-diacylglycerol accumulation in rat brain slices; format: cell-based
# [2] = test system: phosphatidylinositides; test: [3H]inositol phospholipid (phosphatidylinositide) resynthesis in rat brain slices; format: cell-based; settings: 90 min
# [3] = test system: inositol phosphates; test: [3H]inositol phosphate accumulation in rat brain slices; format: cell-based
# [4] = test system: 5HT2 receptor; test: α-methylserotonin-stimulated IP accumulation in tissues prelabeled with [3H]inositol in presence of antidepressants; format: cell-based, rat
# [5] = test system: rats; test: Forced swim test; format: in vivo, rat
# Method: One group of rats was acclimated once in the swim chamber and subgroups of three animals each were administered indicated doses (corresponding to 0, 3, 10, and 30 mg/kg) of imipramine at 24, 3, and 1 h before behavioral testing (conventional regimen). The other group of rats from the same batch was acclimated twice at 48 and 24 h before the time of testing and subgroups were administered the same doses of imipramine at 3 and 1 h before behavioral testing. Animals in each group were then tested in the forced swim apparatus for 5 min and the immobility times determined. […] Each bar is the mean±SEM (n=6). […] Animals were prepared as in FIG. 14 for the modified regimen. […] Test drugs were administered at indicated doses 3 and 1 h before behavioral testing. […] Immobility response data for set one were analyzed by one-way ANOVA (response by dose) in order to determine if the drug by itself produced significant effects. Data for set two were analyzed by one-way ANOVA (response by group, where group comprised control, neomycin, drug, neomycin+drug), followed by posthoc Tukey tests. […] The forced swim test (FST) was applied with some modifications. Rats were transferred to the testing room between 9:00-10:00 AM and allowed at least an hour before being placed individually into translucent polypropylene cylinders (46 cm tall×25 cm in diameter) containing 27 cm depth of water maintained at 25° C. […] After 15 min in the water, the rats were removed, toweled, and allowed to dry in a warm environment before being returned to their home cage. This acclimation step was repeated after 24 h, with the exposure time reduced from 15 to 5 min. […] During the second acclimation exposure, the duration of immobility was recorded for each animal. […] To adjudge that a rat had become immobile, the animal had to float passively in the water in a slightly hunched, but upright position, making only minimal movements necessary to keep its head above the water (65-66). On the third day when animals were to undergo experimental assessment, saline or the indicated antidepressant agents were administered i.p. at 3 h and at 1 h before behavioral testing. The drugs were dissolved in distilled-deionized water and diluted in saline. Control subjects received 0.9% saline. […] Data were analyzed by one-way analysis of variance (ANOVA).
# [6] = test system: 5HT2 receptor; settings: hippocampus, similar in frontal cortex
# Method: Hippocampal slices were incubated with either [^3H]inositol (FIGS. 13A-13B) or [^3H]cytidine (FIG. 13C) for 30 min, followed by addition of indicated concentrations of LY53857 (6-methyl-1-(1-methylethyl)-ergoline-8β-carboxylic acid 2-hydroxy-1-methylpropyl ester maleate). […] After 60 min, tritiated inositol phosphate, inositol phospholipids, or CDP-diacylglycerol were assayed. Each bar is the mean±SEM (n=6). Data for each analyte were normalized across experiments and test drugs and then were analyzed for each drug by One-Way ANOVA of responses measured at the four concentration conditions of LY53857 (0, 0.1, 1, 10 μM). The ANOVAs were followed with Dunnett tests comparing the response in the presence of each concentration of LY53857 to the control effect of the antidepressant alone.
# To examine the extent to which the enhancing effects of antidepressant agents on inositol phosphate accumulation were dependent on postsynaptic 5HT2 receptor stimulation, each antidepressant was challenged with a range of concentrations of the 5HT2 receptor-selective antagonist, LY53857 (71-72). The antagonist was added after the prelabeling phase, but 15 min prior to the addition of α-methylserotonin to the incubating slices.
# [7] = test system: CDP-diacylglycerol/inositol phosphate; test: CDP-DG/IP ratio calculated from brain slice data; format: cell-based, rat; settings: monoamine receptor agonists; frontal cortex or hippocampal tissues
# Method: FIGS. 9A-9C are ratios of antidepressant-induced CDP-diacylglycerol versus inositol phosphates. The data in FIGS. 1A-1C, 2A-2B, 3A-3C, 4A-4B, and 5A-5C were recalculated by dividing the CDP-diacylglycerol effects of each concentration of each antidepressant agent by the corresponding effects of the agent on inositol phosphate accumulation to yield the CDP-diacylglycerol/inositol phosphate (CDP-DG/IP) ratios shown. […] Data for each agent were analyzed by One-Way ANOVA followed by posthoc Dunnett tests. ^#p<0.05; *p<0.01; compared to the respective control (zero drug concentration).
# As used herein, the term “CDP-DG/IP ratio” refers to the relative value of an index which is the quotient of a level of cellular CDP-diacylglycerol divided by a level of inositol phosphate in a tissue or cell or tissue cultures thereof, e.g., a mammalian brain tissue or blood platelets, a human brain tissue or blood platelets, or other cells or tissues having the ability to metabolize CDP-diacylglycerol and phosphoinositides. Levels may be determined, but are not limited to, using molar concentration or a radiolabel.
# To determine if antidepressant agents exert differential effects on CDP-DG production compared to PI hydrolysis, the ratios of CDP-DG production relative to the IPs (CDP-DG/IP ratio) in corresponding treatment conditions were examined.
# Corresponding CDP-DG ratios were calculated as for the antidepressant agents. […] The ratios of CDP-DG production relative to IP accumulation are shown on the far right of the graphs in FIGS. 10A-10C and FIGS. 11A-11D.
# [8] = monoamine receptor agonists, frontal cortex or hippocampal tissues, 5 mM LiCl, 90 min
Structure (SMILES),"effect on [3H]CDP-diacylglycerol accumulation ([1]; rat hippocampal, prefrontal cortical and striatal slices, LiCl present, 90 min)","lowest concentration with statistically significant CDP-diacylglycerol response ([1]; striatum slices, posthoc Dunnett test) [µM]","effect on [3H]inositol labeling of PIs (phosphatidylinositide synthesis) ([2]; hippocampus, frontal cortex, striatum slices)","effect on accumulation of IPs ([3]; 3-300 μM, hippocampus, frontal cortex, striatum slices)",enhancement of α-methylserotonin effects on IP by prelabeling with antidepressant ([4]; frontal cortex tissues),"enhancement of α-Me5HT-induced IP accumulation by prelabeling in presence of antidepressant ([4]; hippocampus, frontal cortex, striatum)",enhancement of α-methylserotonin effects on IP by prelabeling with antidepressant ([4]; striatal tissues),"effect on immobility behavior in forced swim test ([5]; conventional and modified regimens, 0, 3, 10, 30 mg/kg)","effect on immobility times in forced swim test ([5]; modified regimen, i.p. at 3 h and 1 h before testing)",inhibition by 5HT2 receptor blockade (LY53857) of the drug's PI labeling / phosphatidylinositol resynthesis effect [6],"effect on CDP-DG production [1, 8]","effect on PI synthesis ([2]; […], frontal cortex or hippocampal tissues, 5 mM LiCl)","effect on IP accumulation [3, 8]",CDP-DG/IP ratio [7],"IP accumulation induced by agonist by itself ([4]; hippocampus, frontal cortex, striatum, 60 min, 5 mM LiCl)"
CN(C)CCCN1c2ccccc2CCc2ccccc21 [imipramine],significantly and dose-dependently enhanced,30,significantly increased,significantly and dose-dependently stimulated,concentration-dependently enhanced,significantly enhanced,not significantly enhanced,significant dose-related effects; also recorded: significant and dose-related,significant and dose-dependent reductions,"only partially, though significantly, reduced",,,,,
CC(N)Cc1c[nH]c2ccc(O)cc12 (stereo not drawn) [α-methylserotonin],,,,,,,,,,,significantly increased,significant but relatively small effects,significantly increased,no concentration-related increase,significant increases
